# Source: patent publication US4434290A, “Pyrido (4,3-B) carbazoles substituted in the 1 position by a polyamine chain” (priority 1978, dated 1984)
# Where “and” joins values, the source holds several entries; their conditions need not be identical. Identical values can stand only once.
# System: leukemia L1210
# Experiment: Leukemia L1210 in vivo, measurement of survival time (Table XII)
# Design: species or system B6 D2 Fl (C 57 Bl/6×DBA/2) Fl mice; MST: unit not given here
# Settings: for Death interval (mice) / ILS % / MST / Surviving mice: i.p.
# Description: The following pharmacological trials relate to the effects of the compounds of the invention on leukemia L1210 in vivo.
# G. Proc. Nat. Acad. Sci. 1972, 69, 1042-1047 and Schepartz S., Screening 1971, Cancer Chemother. Part 3; Vol. 2, p. 3].
# The properties were determined by the curative action inoculated experimental leukemia L1210. This leukemia was maintained on B6 D2 Fl (C 57 Bl/6×DBA/2) Fl mice in the proportion of 6 or 10 mice per experimental batch. The compounds to be tested were injected by the intraperitoneal route one or several days after inoculation of the cells (1 injection only). […] The death interval was determined, the first figure of the Table indicating the date of the first mouse death and the second the date of the last mouse death. The mean survival time was also measured (MST). A characteristic value is the percentage of increased life span (ILS %). This value (Cancer. Res. 1971, 31, 1883-1887) is the ratio: [formula] where S^t =survival of treated animals and
# S^c =survival of control animals.
# [1] = experimental group of six mice, 15 mg/kg, day +1, 15 mg/kg
# [2] = experimental group of six mice, 20 mg/kg, day +1
compound,measurement,setting,value
CCN(CC)CCCNc1nccc2c(C)c3[nH]c4ccc(OC)cc4c3c(C)c12 [Compound 27],Death interval (mice),"10^5 cells, 10 mg/kg, day +3",12-31
same,ILS %,"10^5 cells, 10 mg/kg, day +3",49.4%
same,MST,"10^5 cells, 10 mg/kg, day +3",17.3
same,Death interval (mice),"10^5 cells, 10 mg/kg, day +4",16-27
same,ILS %,"10^5 cells, 10 mg/kg, day +4",92.3%
same,MST,"10^5 cells, 10 mg/kg, day +4",20
same,Death interval (mice),"10^5 cells, 15 mg/kg, day +1",17-43
same,ILS %,"10^5 cells, 15 mg/kg, day +1",128.6%
same,MST,"10^5 cells, 15 mg/kg, day +1",24
same,Death interval (mice),"10^5 cells, 20 mg/kg, day +3",10-30
same,ILS %,"10^5 cells, 20 mg/kg, day +3",42.7%
same,MST,"10^5 cells, 20 mg/kg, day +3",16.5
same,Death interval (mice),"10^5 cells, 20 mg/kg, day +4",17-23
same,ILS %,"10^5 cells, 20 mg/kg, day +4",94.2%
same,MST,"10^5 cells, 20 mg/kg, day +4",20.2
same,Surviving mice,"experimental group of six mice, 15 mg/kg, day +1",4 mice
same,Death interval (mice),[1],19-35 and 20-32
same,MST,[1],25 and 26
same,Death interval (mice),[2],20-31
same,ILS %,[2],102.4%
same,MST,[2],25.5
same,Surviving mice,[2],4 mice
same,increase in the life span (ILS),"text: dose closest to the toxic dose, same conditions",134%
